From patent US20230357099A1, “PYRAZOLO [3,4-B] PYRIDINE-4-CARBOXAMIDE NITRIFICATION INHIBITOR” (EUROCHEM ANTWERPTEN, priority 2020, published 2023)

How the values were obtained:
[1] = system: agricultural soils (Moorslede and Sint-Laureins); assay: Greenhouse gas measurements from fertilized soil
Procedure: Two agricultural soils coming from fields in Moorslede and Sint-Laureins were used. Screw top vials were filled with 10 g soil. Vials were sealed with Parafilm and preincubated at 21° C. in the dark for 5 days. After pre-incubation, vials were ventilated using a fan. Then 100 µL of a 1 mM compound solution (10 % DMSO) was added, immediately followed by the addition of 100 µL 200 mM NH4Cl. Vials were closed gastight and 5 mL synthetic air was added to the headspace using a plastic syringe, followed by the transfer of 5 mL headspace to an evacuated 3 mL exetainer. Vials were incubated at 21° C. in the dark and background NO concentration was noted. At each sampling timepoint, 5 mL synthetic air was added again to the headspace using a plastic syringe, again followed by the transfer of 5 mL headspace to an evacuated 3 mL exetainer. Vials were ventilated and closed again, and new gas samples were transferred to exetainers like before. N2O in the exetainers were measured via gas chromatography (GC-14 B (Schimadzu) equipped with Haysep Q columns (same spec) and an ECD detector, He at c.a. 20 mL min, 70° C.). The CO2 and CH4 concentration in the 3 mL exetainer vials was measured using a GC (Trace-GC, Interscience) equipped with Haysep Q columns (80-100, ⅛″ divided in 2 part 0.25 and 2.0 m connected with a 6 port valve to allow backflush of water vapor) and a FID (CH4) and TCD (CO2). Carrier gas was He c.a. 20 mL/min kept at 90° C. NO concentration was measured directly by connecting a chemiluminescence NO detector (CLD 77 AM, eco physics) directly to the headspace using a needle.

agricultural soils = assay: In soil nitrification inhibition assay; details: soil; for inhibition at 50 µM: 50 µM of each compound; for inhibition at 100 µM: 100 µM of each compound
Procedure: Top layer (0 to 10 cm) soil samples were collected from different fields in Belgium (Merelbeke, Sint-Laureins and Moorslede). Vegetation was removed and samples were taken from different plots. All soil samples were mixed and sieved (mesh size 2.8 mm) to filter large debris and homogenize soil. The soil was stored at 5° C. in plastic containers covered with Saran foil to prevent changes in microbial community composition and to maintain the original soil water content.
Soil water content was determined by drying 20 g soil for ≥ 48 h in a 60° C. oven and measuring weight before and after drying. Based on the soil water content (± 20%), compound solutions were prepared so that addition of 200 µl compound and 200 µl NH4Cl solution would result in a final compound concentration of 50 µM (unless otherwise stated) and a final NH4+ concentration of 10 mM. Per treatment, 5 small pots were filled with 20 g soil. Next, the soil was treated first with the respective compound solution and then with the NH4Cl solution. Per tray, positive (50 µM DMP) and negative controls (DMSO) were included. […] Demineralized water was added to the soil every 2 to 3 days to a soil weight of 20 g. In the end, each sample of 20 g soil was dissolved in 100 ml 1 M KCI and shaken for 1 hour, followed by filtration through Whatmann® paper. The filtrate was used to measure pH, NH4+ and NO3— concentrations. The nitrification percentage was calculated as the ratio of the consumed ammonium in treated soil versus the consumed ammonium in non-treated soil; the nitrification inhibition percentage was calculated as ‘100% - the nitrification percentage’.

Which results are given for `CC(C)c1cc(C(=O)N2CCSCC2)c2cnn(C(C)C)c2n1` [Example 2]?
N2O emissions compared to the DMSO control (in words) ([1]; Moorslede soil): strongly reduced the emissions; Cumulative emission at indicated timepoint [ppb], N2O, 4 h ([1]; Moorslede soil): 119 ppb; Cumulative emission at indicated timepoint [ppb], N2O, 24 h ([1]; Moorslede soil): 834 ppb; Cumulative emission at indicated timepoint [ppb], N2O, 48 h ([1]; Moorslede soil): 1616 ppb; Cumulative emission at indicated timepoint [ppb], N2O, 72 h ([1]; Moorslede soil): 1875 ppb; Cumulative emission at indicated timepoint [ppb], N2O, 99 h ([1]; Moorslede soil): 1875 ppb; Cumulative emission at indicated timepoint [ppb], NO, 4 h ([1]; Moorslede soil): 256 ppb; Cumulative emission at indicated timepoint [ppb], NO, 24 h ([1]; Moorslede soil): 611 ppb; Cumulative emission at indicated timepoint [ppb], NO, 48 h ([1]; Moorslede soil): 1020 ppb; Cumulative emission at indicated timepoint [ppb], NO, 72 h ([1]; Moorslede soil): 1189 ppb; Cumulative emission at indicated timepoint [ppb], NO, 99 h ([1]; Moorslede soil): 1183 ppb; NO emissions compared to the DMSO or DMP control (in words) ([1]; Sint-Laureins soil): reduce NO emissions; Cumulative emission at indicated timepoint [ppb], N2O, 4 h ([1]; Sint-Laureins soil): 33 ppb; Cumulative emission at indicated timepoint [ppb], N2O, 24 h ([1]; Sint-Laureins soil): 498 ppb; Cumulative emission at indicated timepoint [ppb], N2O, 48 h ([1]; Sint-Laureins soil): 1074 ppb; Cumulative emission at indicated timepoint [ppb], N2O, 72 h ([1]; Sint-Laureins soil): 1562 ppb; Cumulative emission at indicated timepoint [ppb], N2O, 99 h ([1]; Sint-Laureins soil): 1703 ppb; Cumulative emission at indicated timepoint [ppb], NO, 4 h ([1]; Sint-Laureins soil): 81 ppb; Cumulative emission at indicated timepoint [ppb], NO, 24 h ([1]; Sint-Laureins soil): 201 ppb; Cumulative emission at indicated timepoint [ppb], NO, 48 h ([1]; Sint-Laureins soil): 371 ppb; Cumulative emission at indicated timepoint [ppb], NO, 72 h ([1]; Sint-Laureins soil): 547 ppb; Cumulative emission at indicated timepoint [ppb], NO, 99 h ([1]; Sint-Laureins soil): 600 ppb; inhibition at 50 µM (agricultural soils; 72 h, Soil 2, 3 days): 4%; inhibition at 50 µM (agricultural soils; 72 h, Soil 3, 3 days): 5%; inhibition at 50 µM (agricultural soils; 168 h, Soil 1, 7 days): 0%; inhibition at 50 µM (agricultural soils; 168 h, Soil 2, 7 days): 15%; inhibition at 100 µM (agricultural soils; 168 h, Soil 2, 7 days, 6 inhibitors alone and combined with Example 2): 0%; inhibition at 100 µM (agricultural soils; 168 h, Soil 2, 7 days, double and triple combinations): 0%; inhibition at 50 µM (agricultural soils; 168 h, Soil 3, 7 days): 0%
